Consider 25 compounds from ChEMBL document CHEMBL1201862, “PubChem BioAssay data set” (2004).

Calls of active or inactive are those of the source.

A word on the AC50: it is the concentration at which the activity in the assay is half-maximal. As a reminder, the IC50 is the midpoint of a concentration-inhibition curve. As a reminder, the EC50 is the concentration needed to bring the measured effect to its halfway point.

The target in assay [1] is T1, Adenosylmethionine-8-amino-7-oxononanoate aminotransferase (Mycobacterium tuberculosis, UniProt P9WQ81).
T1 sequence (P9WQ81 whole entry): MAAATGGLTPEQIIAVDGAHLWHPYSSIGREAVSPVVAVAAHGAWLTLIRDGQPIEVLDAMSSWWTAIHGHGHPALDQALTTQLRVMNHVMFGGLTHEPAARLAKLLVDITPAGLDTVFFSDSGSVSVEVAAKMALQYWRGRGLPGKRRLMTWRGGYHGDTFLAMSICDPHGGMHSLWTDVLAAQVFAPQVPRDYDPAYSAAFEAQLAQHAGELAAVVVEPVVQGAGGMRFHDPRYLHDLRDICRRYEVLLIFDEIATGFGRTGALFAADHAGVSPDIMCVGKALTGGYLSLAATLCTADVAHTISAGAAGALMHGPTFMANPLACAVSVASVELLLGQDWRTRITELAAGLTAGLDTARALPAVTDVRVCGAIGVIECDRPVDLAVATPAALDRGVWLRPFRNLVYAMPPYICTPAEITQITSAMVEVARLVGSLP
Nature of the assay: Mycobacterium tuberculosis BioA enzyme inhibitor Measured in Biochemical System Using Plate Reader - 2163-02_Inhibitor_Dose_CherryPick_Activity. The format is functional, Mycobacterium tuberculosis UT205.

The target of assay [2] is T2, Leucine aminopeptidase (Plasmodium falciparum 3D7, UniProt Q8IL11).
T2 sequence (Q8IL11 whole entry): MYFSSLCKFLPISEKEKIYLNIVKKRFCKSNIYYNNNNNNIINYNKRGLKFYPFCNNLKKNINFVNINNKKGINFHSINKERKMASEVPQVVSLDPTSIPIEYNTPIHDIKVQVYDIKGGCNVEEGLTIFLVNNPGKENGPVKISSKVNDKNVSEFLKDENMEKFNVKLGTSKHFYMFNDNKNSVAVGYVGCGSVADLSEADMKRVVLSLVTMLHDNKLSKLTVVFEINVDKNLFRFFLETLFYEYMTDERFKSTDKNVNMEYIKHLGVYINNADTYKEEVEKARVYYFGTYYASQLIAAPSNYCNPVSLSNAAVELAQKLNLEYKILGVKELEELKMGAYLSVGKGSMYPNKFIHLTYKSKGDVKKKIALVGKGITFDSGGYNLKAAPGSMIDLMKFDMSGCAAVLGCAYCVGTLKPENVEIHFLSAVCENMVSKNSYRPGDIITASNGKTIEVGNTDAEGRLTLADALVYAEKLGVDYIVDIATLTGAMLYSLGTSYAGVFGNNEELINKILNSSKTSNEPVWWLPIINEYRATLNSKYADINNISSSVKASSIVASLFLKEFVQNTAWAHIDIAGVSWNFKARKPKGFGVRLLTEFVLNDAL
Nature of the assay: P. falciparum M17LAP inhibitors, primary screen, biochemical, fluorogenic H-Leu-NHMec substrate, 1536-well (AID 1619). Format: functional.

Assay [3] in a line: M. tuberculosis H37Rv growth inhibitors, H37Rv strain (AID 1626). Format: functional.
Assay [4] concerns the target T3, Rac GTPase-activating protein 1 (Homo sapiens, UniProt Q9H0H5).
T3 sequence (Q9H0H5 whole entry): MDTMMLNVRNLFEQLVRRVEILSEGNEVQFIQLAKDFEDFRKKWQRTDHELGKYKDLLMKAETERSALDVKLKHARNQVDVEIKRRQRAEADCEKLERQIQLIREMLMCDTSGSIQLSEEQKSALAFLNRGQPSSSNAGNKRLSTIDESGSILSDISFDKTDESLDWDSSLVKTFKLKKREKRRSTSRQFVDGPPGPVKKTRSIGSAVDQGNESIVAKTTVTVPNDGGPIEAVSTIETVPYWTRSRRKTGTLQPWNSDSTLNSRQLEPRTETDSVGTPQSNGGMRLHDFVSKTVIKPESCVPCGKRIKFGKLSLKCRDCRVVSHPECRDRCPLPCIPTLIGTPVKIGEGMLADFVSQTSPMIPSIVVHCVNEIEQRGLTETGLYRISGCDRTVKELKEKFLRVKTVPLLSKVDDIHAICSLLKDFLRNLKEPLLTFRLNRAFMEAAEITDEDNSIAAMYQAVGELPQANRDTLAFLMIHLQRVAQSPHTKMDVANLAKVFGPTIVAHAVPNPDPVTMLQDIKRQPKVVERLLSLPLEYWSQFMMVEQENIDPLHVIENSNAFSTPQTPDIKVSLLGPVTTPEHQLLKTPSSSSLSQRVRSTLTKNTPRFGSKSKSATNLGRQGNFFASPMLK
The experiment in a line: MgcRacGAP GTPase-activating activity inhibitors, confirmation, biochemical, ADP Hunter fluorescence, primary and confirmatory (AID 624330). Format: functional.

Assay [5] in a line: cells. Format: functional, cell-based.
For assay [6], the target named is T4, DNA repair protein RAD52 homolog (Homo sapiens, UniProt P43351).
T4 sequence (P43351 whole entry): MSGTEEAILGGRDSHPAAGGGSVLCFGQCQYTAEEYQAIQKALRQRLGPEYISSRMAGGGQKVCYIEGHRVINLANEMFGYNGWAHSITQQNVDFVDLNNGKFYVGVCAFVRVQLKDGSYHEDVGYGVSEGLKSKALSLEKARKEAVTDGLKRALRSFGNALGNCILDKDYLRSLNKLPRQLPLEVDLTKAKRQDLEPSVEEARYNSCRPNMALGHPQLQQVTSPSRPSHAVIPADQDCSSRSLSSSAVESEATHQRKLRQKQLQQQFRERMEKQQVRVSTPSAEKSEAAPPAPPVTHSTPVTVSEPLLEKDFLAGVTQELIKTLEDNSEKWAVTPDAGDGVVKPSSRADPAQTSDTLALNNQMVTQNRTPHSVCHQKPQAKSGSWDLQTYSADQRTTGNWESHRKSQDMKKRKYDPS
The format is functional, biochemical.

Assay [7] is described as follows: cells. The format is functional, cell-based. The source holds these as a separate data set.
In assay [8] the target is T5, Estrogen receptor (Homo sapiens, UniProt P03372).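 Also: potency for inhibiting coactivator peptide recruitment to the receptor.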
T5 sequence (P03372 whole entry): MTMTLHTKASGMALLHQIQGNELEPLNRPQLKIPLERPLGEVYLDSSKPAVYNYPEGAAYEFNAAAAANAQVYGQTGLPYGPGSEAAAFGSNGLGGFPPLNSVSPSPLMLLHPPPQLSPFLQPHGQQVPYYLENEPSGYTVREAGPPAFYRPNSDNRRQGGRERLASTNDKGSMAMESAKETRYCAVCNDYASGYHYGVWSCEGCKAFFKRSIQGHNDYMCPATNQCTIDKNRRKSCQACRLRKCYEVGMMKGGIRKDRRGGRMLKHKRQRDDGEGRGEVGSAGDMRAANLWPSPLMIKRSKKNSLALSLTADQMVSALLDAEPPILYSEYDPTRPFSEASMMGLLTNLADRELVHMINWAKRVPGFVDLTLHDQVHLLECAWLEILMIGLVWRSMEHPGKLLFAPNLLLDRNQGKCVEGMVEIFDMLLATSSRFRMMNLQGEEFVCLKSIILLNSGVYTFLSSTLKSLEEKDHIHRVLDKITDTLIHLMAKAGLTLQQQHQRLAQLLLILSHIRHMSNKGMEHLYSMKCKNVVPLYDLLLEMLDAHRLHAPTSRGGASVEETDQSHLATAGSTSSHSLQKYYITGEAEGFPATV

Assay [9] is described as follows: microbe, parasite or virus in culture. Format: functional. The note with it: Mycobacterium tuberculosis.
The nature of assay [10]: cells.
Assay [11] is described as follows: HEp-2 cell cytotoxicity, dose response, cytotoxicity control for RSV inhibitor project, HTS (AID 2410). Format: functional. To be noted: human respiratory syncytial virus.
Assay [12] in a line: cells. Format: functional, cell-based. This is another data set of the same source.
The nature of assay [13]: cells. Format: functional, cell-based. The source holds these as a separate data set.
For assay [14], the target named is Paired box protein Pax-8 (Homo sapiens, UniProt Q06710). The experiment in a line: inhibitors of PAX8-driven TPO luciferase reporter, dose response, RMG-I cells, cherry-pick (AID 687027).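 Also: luciferase reporter driven by Pax8 target thyroperoxidase promoter measured by SteadyGlo luminescence.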 Format: functional, cell-based.
The nature of assay [15]: NIH:OVCAR-3 ovarian cancer cell cytotoxicity, dose response, PAX8 inhibitor project, plate reader, dry powder samples (AID 743044). Format: functional, cell-based.
Assay [16] concerns the target Dual specificity tyrosine-phosphorylation-regulated kinase 1A (Rattus norvegicus, UniProt Q63470). The format is biochemical, Homo sapiens.

Chain of Paired box protein Pax-8 (Q06710 whole entry): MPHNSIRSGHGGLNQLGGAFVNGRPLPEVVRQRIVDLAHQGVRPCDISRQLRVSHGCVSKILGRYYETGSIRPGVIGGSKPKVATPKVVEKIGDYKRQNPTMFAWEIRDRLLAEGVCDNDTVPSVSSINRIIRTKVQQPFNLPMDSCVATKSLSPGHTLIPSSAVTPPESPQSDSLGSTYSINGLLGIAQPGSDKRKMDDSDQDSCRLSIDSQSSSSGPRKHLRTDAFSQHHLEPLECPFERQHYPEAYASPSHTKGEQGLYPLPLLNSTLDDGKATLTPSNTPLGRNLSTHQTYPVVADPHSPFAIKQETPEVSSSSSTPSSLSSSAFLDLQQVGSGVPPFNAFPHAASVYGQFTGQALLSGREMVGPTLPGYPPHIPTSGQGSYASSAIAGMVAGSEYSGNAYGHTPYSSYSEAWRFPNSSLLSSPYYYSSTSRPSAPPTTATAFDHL

`CC(=O)c1ccc(N2CCN(C(=O)c3ccc4[nH]cnc4c3)CC2)cc1`: the AC50 in [1] is 8.11 µM (active).
As for `O=C(O)Cn1cc(/C=C2/NC(=O)N(c3ccc(Cl)cc3)C2=O)c2ccccc21`, the 50% inhibitory concentration (IC50) in [2] is 11.9 µM (active).
With `O=C(CNCc1ccco1)Nc1ccc(Oc2ccccc2)cc1`, the IC50 in [3] is > 100 µM (active); in assay [4], 122 µM (active).
For the compound `N=C(N)Nc1cc2ccccc2c2ccccc12`, the IC50 in assay [5] was > 29.9 µM (inactive). Moreover, the AC50 in assay [6] is 7.61 µM (active). Moreover, the EC50 in [7] was > 29.9 µM (inactive).
As for `Cc1cc(SCC(=O)NC(=O)NCc2ccco2)nc2c(C)cccc12`, in assay [8], the IC50 is 32 µM (not active).
Same read-out and setting: then `O=C(COC(=O)CCC(=O)c1cccs1)NCc1ccco1`, with 11.9 µM (active).
As to `Cc1ccc(-c2nc3c(c(=O)c4ccccc4n3C)c(=O)n2Cc2ccco2)cc1`, the CC50 in assay [9] is 38.3 µM (active). Moreover, the IC50 in [10] was 5.74 µM (active).
As to `COc1ccc(NC(=O)c2ccc(S(=O)(=O)N(C)C)cc2)cc1OC`, the AC50 in [1] was 9.66 µM (active).
As to `COC(=O)c1cc(NC(=O)C2CC=CCC2C(=O)O)cc(C(=O)OC)c1` (stereo not drawn), the IC50 in assay [2] is 28.6 µM (active).
Consider `O=C(Cc1cccs1)N1CCN=C1SCc1ccc(Br)cc1`, for which the IC50 in [3] is > 100 µM (active).
As for `CC(=O)N1[C@@H]2c3ccc(-c4cccnc4)c(=O)n3C[C@@H]2[C@@H](CO)[C@@H]1C(=O)NCc1ccccc1Cl`, the AC50 in [1] was 1.09 µM (active).
On to `Cc1ccccc1-n1c(C)nnc1SCc1cc(=O)oc2ccc3ccccc3c12`, for which the CC50 in [11] is > 50 µM (active). For the same compound, the IC50 in assay [10] is > 50 µM (active).
Take `Cn1nnc2cc(C(=O)N3CCC(c4ccccc4)C3)ccc21` (stereo not drawn): the EC50 in assay [12] and in assay [13] was > 350 µM (not active) throughout. The AC50 in assay [1] is 4.86 µM (active).
Take `O=C(CSc1nc[nH]n1)Nc1ncc(C(F)(F)F)cc1Cl`: the concentration for half-maximal inhibition (IC50) in [2] is 19.6 µM (active).
Take `COc1ccc(NC(=O)CSc2ncn(-c3ccccc3)n2)cc1Cl`: the IC50 in assay [3] is > 100 µM (active).
As to `O=C(NNC(=O)c1ccc(SCC2CCCO2)c([N+](=O)[O-])c1)c1ccc(Cl)c([N+](=O)[O-])c1` (stereo not drawn), the IC50 in [8] is 23.3 µM (active).
For `O=S(=O)(Nc1cccc2nsnc12)c1ccccc1`, the 50% inhibitory concentration (IC50) in assay [2] was 15.5 µM (active).
Consider `C[C@@H]1CN([C@H](C)CO)C(=O)c2cc(NS(=O)(=O)c3ccc(Cl)cc3)ccc2O[C@@H](C)CCCCO[C@H]1CN(C)Cc1ccc(Cl)c(Cl)c1`, for which the AC50 was 4.84 µM (active) in assay [14] and 32.8 µM (active) in assay [15].
For `O=C(CCCOc1ccccc1)NCCc1ccccc1`, the IC50 in assay [5] is > 29.9 µM (inactive). The EC50 in [7] was > 29.9 µM (inactive).
On to `O=C(Nc1nc(-c2ccc(-c3ccccc3)cc2)cs1)c1cnccn1`, for which the IC50 in assay [3] is > 100 µM (active).
Consider `CN1/C(=N\O)c2cccc3cccc1c23`, for which the values for the CC50 in [11] and in [9] were 24.9 µM (active) and > 40 µM (active), respectively. The AC50 in [16] is 1.28 µM (active). Besides, in assay [4], the IC50 was 24.8 µM (active).
For the compound `COc1ccc(/N=C/c2ccc[nH]2)cc1`, in [3], the IC50 was > 100 µM (active).
With `CC(C)(C)c1cc(NC(=O)c2cc(F)c(F)c(F)c2F)no1`, the IC50 in [10] is 41.2 µM (active).
Consider `CC(C)c1onc(C(=O)NCCc2ccccc2)c1[N+](=O)[O-]`, for which the IC50 in assay [5] is > 29.9 µM (inactive). Further, the EC50 in assay [7] is > 29.9 µM (inactive).
As for `Cc1nnc(N2CCC(C(=O)N3CCCCC3)CC2)c2nn(-c3ccc(Cl)cc3)c(C)c12`, the AC50 in [1] was 4.14 µM (active).
